Read-outs that look alike come from different tables or passages of the source.

One assay deals with pecans with mouse-ear. Nature of the assay: Inventors' orchard observations of soil or foliar copper, phosphorus, sulfur on mouse-ear. The settings on record: for effect on mouse-ear, soil application of high amounts: 1st generation orchard site. Format: in vivo, pecan [Carya illinoinensis (Wangenh.) K. Koch].
The subject of assay [1] is pecan trees exhibiting severe mouse-ear. The class given is in vivo. The settings on record: early April foliar spray at late parachute stage, treatments as in Example 8, orchard transplants, subsequent shoot growth, scale 1-10.
Assay [2] concerns 1-year-old 'Desirable' pecan seedlings potted in mouse-ear orchard soil. Nature of the assay: October foliar copper or nickel at 0-8X on potted greenhouse pecan seedlings, mouse-ear rated in spring. The class given is in vivo, pecan [Carya illinoinensis (Wangenh.) K. Koch]. The settings on record: autumn foliar copper 1X-8X, X = about 1.98 g copper sulfate per liter.
In assay [3] the test system is severely mouse-eared 'Desirable' pecan trees. Format: in vivo. The following applies: October foliar spray till run-off, NiSO4.6H2O about 3.5 g/L or CuSO4.5H2O about 4 g/L with urea and surfactant, orchard transplants, rated following May, scale 1 = no symptoms to 10 = most severe.
For assay [4], the system named is pecan seedlings exhibiting severe nickel deficiency, i.e., mouse-ear. Format: in vivo, pecan [Carya illinoinensis (Wangenh.) K. Koch]. The following applies: foliar spray in the spring during bud break, tested 0-1000 ppm.

With `[P]` [phosphorus], in the assay with pecans with mouse-ear, the “effect on mouse-ear, soil application of high amounts” value is “corrected mouse-ear symptoms three years after application”.
As to `O.O.O.O.O.O=S(=O)([O-])[O-].[Cu+2]` [Copper, CuSO4.5H2O], the “Mouse-ear Severity (Class)” value in assay [1] is 8.1 a Class; in assay [1] (listed as copper) it was “about 8.1 Class”; in assay [3] it was 7.6 a Class; in assay [3] (listed as copper), 7.6 Class. Also, the “effect on mouse-ear, soil applied at time of transplanting” value in the assay with pecans with mouse-ear (2nd generation site) was “corrects mouse-ear on one 2nd generation site”. The “effect on mouse-ear, foliar applications” value in the assay with pecans with mouse-ear (in vivo) is recorded as “little or no curative influence on mouse-ear severity”. In the assay on pecans with mouse-ear (trees with mild to moderate mouse-ear on a 1st generation site), the “effect on mouse-ear, topical application to the soil” value is given as “largely cured of mouse-ear by the 3rd year”. Besides, the “effect on mouse-ear severity the following spring” value in assay [2] was “failed to correct mouse-ear and actually increased severity of mouse-ear as the concentration of applied copper increased”.
nickel lignosulfonate: the “nickel concentration at which foliar application corrected mouse-ear / nickel deficiency” value in assay [4] is at least 10 ppm.
Turning to `S1SSSSSSS1` [sulfur], the “effect on mouse-ear, soil application of high amounts” value in the assay with pecans with mouse-ear was “corrected mouse-ear symptoms three years after application”.

Values taken from patent publication US20050245397A1, “Use of nickel to correct growth disorders in plants” (priority 2004, published 2005).
